The values that follow come from patent US12116388B2, “Amylin receptor agonists” (Novo Nordisk A/S, priority 2022, dated 2024).

Each structure is given as a SMILES string. Starred links: 1 amine or outer side, 2 acyl side, 3 side chain; linkers in the order of their positions; H or OH if unused. Residues, ends and D or L forms follow the SMILES beside them. Groups on a side chain read outwards from the residue. *: point of attachment. C18 diacid = O=C(O)CCCCCCCCCCCCCCCCC(=O)*; γGlu = O=C(O)[C@H](CCC(=O)[*:2])N[*:1]

In test [1] the target is T1, human amylin receptor (hAMYR3) (Homo sapiens, UniProt O60896+P30988).
T1 construct: host or cells: BHK (Baby Hamster Kidney), Hollex-1 cell line further transfected with RAMP3
Kind of test: Human amylin receptor (hAMYR3) in vitro potency assay, CRE-luciferase reporter in BHK cells. Conditions: BHK hAMYR3/CRE-Luc cells, 3 hours incubation, assay buffer with 1% ovalbumin. Type of test: cell-based. In short, it runs like this: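 Luminescence from a CRE-driven luciferase reporter reflects cAMP-mediated receptor activation. Peptides were serially diluted (7 concentrations, 7-fold steps, typically starting near 10 nM) in buffer with 1% ovalbumin and applied for 3 h at 37 °C to BHK cells co-expressing calcitonin receptor (a) and RAMP3.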
On the technique in general: Reporter assays use an easily measured gene product as a stand-in for the process of interest.

Test [2] has as its target T2, human calcitonin receptor (hCTR) (Homo sapiens, UniProt P30988).
T2 construct: host or cells: BHK (Baby Hamster Kidney), Hollex-1 cell line
T2 sequence (P30988 25-474): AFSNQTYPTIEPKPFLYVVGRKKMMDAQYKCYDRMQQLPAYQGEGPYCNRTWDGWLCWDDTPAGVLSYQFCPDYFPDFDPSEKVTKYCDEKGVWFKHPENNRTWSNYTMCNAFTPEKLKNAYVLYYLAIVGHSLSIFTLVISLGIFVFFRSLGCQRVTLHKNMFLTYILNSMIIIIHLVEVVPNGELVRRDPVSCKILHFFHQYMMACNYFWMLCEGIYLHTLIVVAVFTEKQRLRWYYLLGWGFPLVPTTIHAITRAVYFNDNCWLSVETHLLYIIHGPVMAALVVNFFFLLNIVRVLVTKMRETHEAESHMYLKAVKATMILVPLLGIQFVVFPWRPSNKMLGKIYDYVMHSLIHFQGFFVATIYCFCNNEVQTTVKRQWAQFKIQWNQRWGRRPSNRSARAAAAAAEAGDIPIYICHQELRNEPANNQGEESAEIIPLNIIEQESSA
Nature of the test: Human calcitonin receptor (hCTR) in vitro potency assay, CRE-luciferase reporter in BHK cells. The following applies: BHK hCTR/CRE-Luc cells, 3 hours incubation, assay buffer with 1% ovalbumin; read-out: hCalcR potency, EC50. Type of test: cell-based. In short, it runs like this:
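Luciferase signal from a CRE reporter served as the cAMP read-out after 3 h, 37 °C exposure to compound. Cells were stably transfected BHK expressing hCTR, and the buffer was phenol-red-free DMEM with 10 mM HEPES and 1% ovalbumin. Compounds were tested as 7-point, 7-fold dilutions, often from about 10 nM.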

T1 sequence (O60896 24-148, one chain of several): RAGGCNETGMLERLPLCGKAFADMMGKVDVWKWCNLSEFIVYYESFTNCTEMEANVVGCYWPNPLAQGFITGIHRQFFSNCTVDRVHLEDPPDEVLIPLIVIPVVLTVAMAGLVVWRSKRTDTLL

Turning to `CC[C@H](C)[C@H](NC(=O)[C@@H]1CCCN1C(=O)CNC(=O)[C@H](Cc1ccccc1)NC(=O)[C@H](Cc1c[nH]cn1)NC(=O)[C@H](Cc1c[nH]cn1)NC(=O)[C@H](CC(C)C)NC(=O)[C@H](Cc1ccccc1)NC(=O)[C@H](CCC(=O)O)NC(=O)[C@H](C)NC(=O)[C@H](CC(C)C)NC(=O)[C@H](CCCNC(=N)N)NC(=O)[C@H](C)NC(=O)[C@@H](NC(=O)[C@H](CCC(N)=O)NC(=O)[C@H](C)NC(=O)[C@@H](NC(=O)[C@H](CO)NC(=O)[C@H](CC(C)C)NC(=O)[C@H](Cc1c[nH]cn1)NC(=O)[C@H](CO)NC(=O)[C@H](C)NC(=O)CC[C@H](NC(=O)CC[C@H](NC(=O)CCCCCCCCCCCCCCCCC(=O)O)C(=O)O)C(=O)O)[C@@H](C)O)[C@@H](C)O)C(=O)N[C@@H](CC(C)C)C(=O)N1CCC[C@H]1C(=O)N1CCC[C@H]1C(=O)N[C@H](C(=O)N[C@@H](CC(=O)O)C(=O)N[C@H](C(=O)NCC(=O)N[C@@H](CO)C(=O)N[C@@H](CCC(=O)O)C(=O)N[C@H](C(=O)N1CCC[C@H]1C(N)=O)[C@@H](C)O)C(C)C)[C@@H](C)O` [Compound 17, N^1-[(4S)-4-carboxy-4-[[(4S)-4-carboxy-4-(17-carboxyheptadecanoylamino)butanoyl]amino]butanoyl]-[Ala1,Ser2,His3,Leu4,Ser5,Ala7,Gln8,Ala10,Glu14,His17,Pro25,Pro28,Pro29,Asp31,Glu35,Pro37],des-(19-22)-human amylin] ({C18 diacid-γGlu-γGlu}-ASHLSTAQTARLAEFLHHFGPILPPTDVGSETP-NH2), the EC50 (in general, the concentration giving half of the maximal effect) was 1.11 pM in test [1] and 1.15 pM in test [2].

In the case of `CC[C@H](C)[C@H](NC(=O)[C@@H]1CCCN1C(=O)CNC(=O)[C@H](Cc1ccccc1)NC(=O)[C@H](CC(N)=O)NC(=O)[C@H](CC(=O)O)NC(=O)[C@H](CO)NC(=O)[C@H](CO)NC(=O)[C@H](Cc1c[nH]cn1)NC(=O)[C@H](Cc1c[nH]cn1)NC(=O)[C@H](CC(C)C)NC(=O)[C@H](Cc1ccccc1)NC(=O)[C@H](CCC(=O)O)NC(=O)[C@H](C)NC(=O)[C@H](CC(C)C)NC(=O)[C@H](CCCNC(=N)N)NC(=O)[C@H](C)NC(=O)[C@@H](NC(=O)[C@H](CCC(N)=O)NC(=O)[C@H](C)NC(=O)[C@@H](NC(=O)[C@H](CO)NC(=O)[C@H](CC(C)C)NC(=O)[C@H](CCC(N)=O)NC(=O)[C@H](CO)NC(=O)[C@H](C)NC(=O)CC[C@H](NC(=O)CCCCCCCCCCCCCCCCC(=O)O)C(=O)O)[C@@H](C)O)[C@@H](C)O)C(=O)N[C@@H](CC(C)C)C(=O)N1CCC[C@H]1C(=O)N1CCC[C@H]1C(=O)N[C@H](C(=O)N[C@@H](CC(=O)O)C(=O)N[C@H](C(=O)NCC(=O)N[C@@H](CO)C(=O)N[C@@H](CC(N)=O)C(=O)N[C@H](C(=O)N1CCC[C@H]1C(N)=O)[C@@H](C)O)C(C)C)[C@@H](C)O` [Compound 22, N^1-[(4S)-4-carboxy-4-(17-carboxyheptadecanoylamino)butanoyl]-[Ala1,Ser2,Gln3,Leu4,Ser5,Ala7,Gln8,Ala10,Glu14,His17,Asp21,Pro25,Pro28,Pro29,Asp31,Pro37]-human amylin] ({C18 diacid-γGlu}-ASQLSTAQTARLAEFLHHSSDNFGPILPPTDVGSNTP-NH2), the EC50 in test [1] is 1.22 pM; in test [2], 1.86 pM.

For `CC[C@H](C)[C@H](NC(=O)[C@H](C)NC(=O)CNC(=O)[C@H](Cc1ccccc1)NC(=O)[C@@H]1CCCN1C(=O)[C@H](CC(=O)O)NC(=O)[C@H](CO)NC(=O)[C@H](CO)NC(=O)[C@H](Cc1c[nH]cn1)NC(=O)[C@H](Cc1c[nH]cn1)NC(=O)[C@H](CC(C)C)NC(=O)[C@H](Cc1ccccc1)NC(=O)[C@H](CCC(=O)O)NC(=O)[C@H](C)NC(=O)[C@H](CC(C)C)NC(=O)[C@H](CCCNC(=N)N)NC(=O)[C@H](CCC(N)=O)NC(=O)[C@@H](NC(=O)[C@H](CCC(N)=O)NC(=O)[C@H](C)NC(=O)[C@@H](NC(=O)[C@H](CO)NC(=O)[C@H](CC(C)C)NC(=O)[C@H](CCC(N)=O)NC(=O)[C@H](CO)NC(=O)[C@H](C)NC(=O)CC[C@H](NC(=O)CCCCCCCCCCCCCCCCC(=O)O)C(=O)O)[C@@H](C)O)[C@@H](C)O)C(=O)N1CCC[C@H]1C(=O)N[C@@H](CO)C(=O)N[C@@H](CO)C(=O)N[C@H](C(=O)N[C@@H](CC(=O)O)C(=O)N[C@H](C(=O)NCC(=O)N1CCC[C@H]1C(=O)N[C@@H](CC(=O)O)C(=O)N[C@H](C(=O)N1CCC[C@H]1C(N)=O)[C@@H](C)O)C(C)C)[C@@H](C)O` [Compound 24] ({C18 diacid-γGlu}-ASQLSTAQTQRLAEFLHHSSDPFGAIPSSTDVGPDTP-NH2), the EC50 in test [1] is 1.49 pM; in test [2], 1.56 pM.

`CC[C@H](C)[C@H](NC(=O)[C@H](C)NC(=O)CNC(=O)[C@H](Cc1ccccc1)NC(=O)[C@@H]1CCCN1C(=O)[C@H](CC(=O)O)NC(=O)[C@H](CO)NC(=O)[C@H](CO)NC(=O)[C@H](Cc1c[nH]cn1)NC(=O)[C@H](Cc1c[nH]cn1)NC(=O)[C@H](CC(C)C)NC(=O)[C@H](Cc1ccccc1)NC(=O)[C@H](CCC(=O)O)NC(=O)[C@H](C)NC(=O)[C@H](CC(C)C)NC(=O)[C@H](CCCNC(=N)N)NC(=O)[C@H](C)NC(=O)[C@@H](NC(=O)[C@H](CCC(N)=O)NC(=O)[C@H](C)NC(=O)[C@@H](NC(=O)[C@H](CO)NC(=O)[C@H](CC(C)C)NC(=O)[C@H](Cc1c[nH]cn1)NC(=O)[C@H](CO)NC(=O)[C@H](C)NC(=O)CC[C@H](NC(=O)CCCCCCCCCCCCCCCCC(=O)O)C(=O)O)[C@@H](C)O)[C@@H](C)O)C(=O)N1CCC[C@H]1C(=O)N[C@@H](CO)C(=O)N[C@@H](CO)C(=O)N[C@H](C(=O)N[C@@H](CC(=O)O)C(=O)N[C@H](C(=O)NCC(=O)N1CCC[C@H]1C(=O)N[C@@H](CC(=O)O)C(=O)N[C@H](C(=O)N1CCC[C@H]1C(N)=O)[C@@H](C)O)C(C)C)[C@@H](C)O` [Compound 25, N^1-[(4S)-4-carboxy-4-(17-carboxyheptadecanoylamino)butanoyl]-[Ala1,Ser2,His3,Leu4,Ser5,Ala7,Gln8,Ala10,Glu14,His17,Asp21,Pro22,Pro27,Asp31,Pro34,Asp35,Pro37]-human amylin] ({C18 diacid-γGlu}-ASHLSTAQTARLAEFLHHSSDPFGAIPSSTDVGPDTP-NH2): the EC50 was 1.27 pM in test [1] and 1.5 pM in test [2].

For the compound `CC[C@H](C)[C@H](NC(=O)[C@H](CCCCNC(=O)CC[C@H](NC(=O)CCCCCCCCCCCCCCCCC(=O)O)C(=O)O)NC(=O)CNC(=O)[C@H](Cc1ccccc1)NC(=O)[C@H](CC(N)=O)NC(=O)[C@H](CC(=O)O)NC(=O)[C@H](CO)NC(=O)[C@H](CO)NC(=O)[C@H](Cc1c[nH]cn1)NC(=O)[C@H](Cc1c[nH]cn1)NC(=O)[C@H](CC(C)C)NC(=O)[C@H](Cc1ccccc1)NC(=O)[C@H](CCC(=O)O)NC(=O)[C@H](C)NC(=O)[C@H](CC(C)C)NC(=O)[C@H](CCCNC(=N)N)NC(=O)[C@H](C)NC(=O)[C@@H](NC(=O)[C@H](CCC(N)=O)NC(=O)[C@H](C)NC(=O)[C@@H](NC(=O)[C@H](CO)NC(=O)[C@H](CC(C)C)NC(=O)[C@H](Cc1c[nH]cn1)NC(=O)[C@H](CO)NC(=O)[C@H](C)NC(C)=O)[C@@H](C)O)[C@@H](C)O)C(=O)N[C@@H](CC(C)C)C(=O)N1CCC[C@H]1C(=O)N1CCC[C@H]1C(=O)N[C@H](C(=O)N[C@@H](CC(=O)O)C(=O)N[C@H](C(=O)NCC(=O)N[C@@H](CO)C(=O)N[C@@H](CC(N)=O)C(=O)N[C@H](C(=O)N1CCC[C@H]1C(N)=O)[C@@H](C)O)C(C)C)[C@@H](C)O` [Compound 41, N^1-acetyl,N{Epsilon-25}-[(4S)-4-carboxy-4-(17-carboxyheptadecanoylamino)butanoyl]-[Ala1,Ser2,His3,Leu4,Ser5,Ala7,Gln8,Ala10,Glu14,His17,Asp21,Lys25,Pro28,Pro29,Asp31,Pro37]-human amylin] (Ac-ASHLSTAQTARLAEFLHHSSDNFGK([γGlu-C18 diacid])ILPPTDVGSNTP-NH2), the EC50 in test [1] and in test [2] was 1.16 pM each time.
